Data taken from patent US20100056525A1, “5- AND 6- SUBSTITUTED BENZIMIDAZOLE THIOPHENE COMPOUNDS” (priority 2006, published 2010).

What was measured:
PLK1 kinase domain = target: T1, PLK1 kinase domain (Homo sapiens, UniProt P53350); assay: Assay for Inhibition of PLK1 (SPA, 33P-ATP); type: biochemical; details: 2 nM PLK1 kinase domain, 1 μM ATP, 22° C.; read-out: PLK1 pIC50 (converted)
T1 construct: made in house; host or cells: baculovirus infected T. ni cells
Protocol: A. Preparation of 6× N-Terminal His-Tagged PLK Kinase Domain
All procedures were performed at 4° C. Cells were lysed in 50 mM HEPES, 200 mM NaCl, 50 mM imidazole, 5% glycerol; pH 7.5. The homogenate was centrifuged at 14K rpm in a SLA-1500 rotor for 1 hr and the supernatant filtered through a 1.2 micron filter. The supernatant was loaded onto a Nickel chelating Sepharose (Amersham Pharmacia) column and washed with lysis buffer. Protein was eluted using 20%, 30% and 100% buffer B steps where buffer B was 50 mM HEPES, 200 mM NaCl, 300 mM imidazole, 5% glycerol; pH 7.5. Fractions containing PLK were determined by SDS-PAGE. Fractions containing PLK were diluted five-fold with 50 mM HEPES, 1 mM DTT, 5% glycerol; pH 7.5, then loaded on an SP Sepharose (Amersham Pharmacia) column. After washing the column with 50 mM HEPES, 1 mM DTT, 5% glycerol; pH 7.5, PLK was step eluted with 50 mM HEPES, 1 mM DTT, 500 mM NaCl; 5% glycerol; pH 7.5. PLK was concentrated using a 10 kDa molecular weight cutoff membrane and then loaded onto a Superdex 200 gel filtration (Amersham Pharmacia) column equilibrated in 25 mM HEPES, 1 mM DTT, 500 mM NaCl, 5% glycerol; pH 7.5. Fractions containing PLK were determined by SDS-PAGE. PLK was pooled, aliquoted and stored at −80° C. Samples were quality controlled using mass spectrometry, N-terminal sequencing and amino acid analysis.
B. Enzyme Activity +/− Inhibitors was Determined as Follows:
All measurements were obtained under conditions where signal production increased linearly with time and enzyme. Test compounds were added to white 384-well assay plates (0.1 μL for 10 μL and some 20 μL assays, 1 μL for some 20 μL assays) at variable known concentrations in 100% DMSO. DMSO (1-5% final, as appropriate) and EDTA (65 mM in reaction) were used as controls.
Reaction Mix (10 or 20 μL) was quickly added to each well immediately following addition of enzyme via automated liquid handlers and incubated 1-1.5 h at 22° C. The 20 μL enzymatic reactions were stopped with 50 μL of stop mix (50 mM EDTA, 4.0 mg/mL Streptavidin SPA beads in Standard Dulbecco's PBS (without Mg^2+ and Ca^2+), 50 μM ATP) per well. The 10 μL reactions were stopped with 10 μL of stop mix (50 mM EDTA, 3.0 mg/mL Streptavidin-coupled SPA Imaging Beads (“LeadSeeker”) in Standard Dulbecco's PBS (without Mg^2+ and Ca^2+), 50 μM ATP) per well. Plates were sealed with clear plastic seals, spun at 500×g for 1 min or settled overnight, and counted in Packard TopCount for 30 seconds/well (regular SPA) or imaged using a Viewlux imager (LeadSeeker SPA). Signal above background (EDTA controls) was converted to percent inhibition relative to that obtained in control (DMSO-only) wells.

[1] = system: HCT-116 (human colon) cells; assay: Cell-Titer Glo Cell Growth Inhibition Assay; type: cell-based; details: HCT-116 cells, 72 h incubation, CellTiter-Glo, read-out: HCT116 IC50
Protocol: A549-L (human lung), Colo 205 (human colon), HCT-116 (human colon), HT29 (human colon), MX-1 (human breast), SKOV3 (human ovary) and P388 (murine leukemia) cell lines were cultured in RPM11640 containing 10% fetal bovine serum at 37° C. in a 5% CO2 incubator. Cell lines were split into T75 flasks (Falcon #353136) two to three days prior to assay set up at density which yields approximately 70-80% confluency at time of harvest for assay. Cells were harvested using 0.25% trypsin with EDTA (Glibco/Invitrogen #25200-056), Cell counts were performed on cell suspensions using Trypan Blue exclusion staining, cells were then plated in 105 µL of culture media per well at the following densities in 96 well Costar #3916 black flat bottom plates: A549-L 500 cells/well, Colo205 500 cells/well, HCT-116 500 cells/well, HT29 500 cells/well, MX-1 500 cells/well, SKOV3 500 cells/well and P388 250 cells/well. All plates were placed at 5% CO2 37° C. overnight and then test compounds were added the following day. One plate of each cell type was treated with CellTiter-Glo (Promega #G7573) for a day 0 proliferation measurement and read as described below. The test compounds were prepared in clear U bottom polypropylene 96 well plates (Falcon #35-1190 with consecutive two fold dilutions. 9 uL of these dilutions was added into each well of the cell plates. The final concentration of DMSO in all wells was 0.15%. Cells were incubated at 37° C., 5% CO2 for 72 h. Following 72 h of incubation with compounds each plate was developed and read. CellTiter-Glo reagent was added to assay plates using a volume equivalent to the cell culture volume in the wells. Plates were shaken for approximately 2 min and incubated at rt for approximately 15 min and the chemiluminescent signal was read on the Victor V or Envison 2100 reader. […] Concentration of compound that inhibited 50% of cell growth (IC50) was analyzed by 4 or 6 parameter fit of data using XLfit, value of no cell addition was substracted from all samples for background.

T1 sequence (P53350 21-346): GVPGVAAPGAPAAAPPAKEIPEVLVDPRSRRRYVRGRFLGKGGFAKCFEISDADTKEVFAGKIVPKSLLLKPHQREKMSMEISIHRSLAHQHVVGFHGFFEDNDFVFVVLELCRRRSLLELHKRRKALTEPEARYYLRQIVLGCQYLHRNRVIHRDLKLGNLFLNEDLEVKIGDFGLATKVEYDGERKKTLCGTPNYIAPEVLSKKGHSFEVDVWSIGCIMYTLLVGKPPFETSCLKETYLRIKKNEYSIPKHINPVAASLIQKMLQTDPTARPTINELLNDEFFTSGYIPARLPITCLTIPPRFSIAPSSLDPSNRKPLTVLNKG

Row | IC50 (PLK1 kinase domain) [nM] | IC50 [1] [nM] | SMILES
1 | < 100 | < 500 | C[C@@H](Oc1cc(-n2cnc3cc(-c4ccnc(NCCCN5CCN(C)CC5)n4)ccc32)sc1C(N)=O)c1ccccc1Cl [Example 17, 3-{[(1R)-1-(2-chlorophenyl)ethyl]oxy}-5-[5-(2-{[3-(4-methyl-1-piperazinyl)propyl]amino}-4-pyrimidinyl)-1H-benzimidazol-1-yl]-2-thiophenecarboxamide]
2 | < 100 | < 500 | C[C@@H](Oc1cc(-n2cnc3cc(-c4cnc(NCCCN(C)C)nc4)ccc32)sc1C(N)=O)c1ccccc1Cl [Example 18, 3-{[(1R)-1-(2-Chlorophenyl)ethyl]oxy}-5-[5-(2-{[3-(dimethylamino)propyl]amino}-5-pyrimidinyl)-1H-benzimidazol-1-yl]-2-thiophenecarboxamide]
3 | < 100 | < 500 | C[C@@H](Oc1cc(-n2cnc3cc(-c4cnc(NCCN(C)C)nc4)ccc32)sc1C(N)=O)c1ccccc1Cl [Example 19, 3-{[(1R)-1-(2-Chlorophenyl)ethyl]oxy}-5-[5-(2-{[2-(dimethylamino)ethyl]amino}-5-pyrimidinyl)-1H-benzimidazol-1-yl]-2-thiophenecarboxamide]
4 | < 100 | < 500 | C[C@@H](Oc1cc(-n2cnc3cc(-c4cnc(NCCCN5CCN(C)CC5)nc4)ccc32)sc1C(N)=O)c1ccccc1Cl [Example 20, 3-{[(1R)-1-(2-Chlorophenyl)ethyl]oxy}-5-[5-(2-{[3-(4-methyl-1-piperazinyl)propyl]amino}-5-pyrimidinyl)-1H-benzimidazol-1-yl]-2-thiophenecarboxamide]
5 | < 100 | < 500 | C[C@@H](Oc1cc(-n2cnc3cc(-c4cnc(N(C)CCN(C)C)nc4)ccc32)sc1C(N)=O)c1ccccc1Cl [Example 21, 3-{[(1R)-1-(2-chlorophenyl)ethyl]oxy}-5-(5-{2-[[2-(dimethylamino)ethyl](methyl)amino]-5-pyrimidinyl}-1H-benzimidazol-1-yl)-2-thiophenecarboxamide]
6 | < 100 | < 500 | C[C@@H](Oc1cc(-n2cnc3cc(-c4cnc(NCCN5CCOCC5)nc4)ccc32)sc1C(N)=O)c1ccccc1Cl [Example 22, 3-{[(1R)-1-(2-chlorophenyl)ethyl]oxy}-5-[5-(2-{[2-(4-morpholinyl)ethyl]amino}-5-pyrimidinyl)-1H-benzimidazol-1-yl]-2-thiophenecarboxamide]
7 | < 100 | < 500 | C[C@@H](Oc1cc(-n2cnc3cc(-c4cccc(OCCN5CCCC5)c4)ccc32)sc1C(N)=O)c1ccccc1Cl [Example 23, 3-{[(1R)-1-(2-chlorophenyl)ethyl]oxy}-5-[5-(3-{[2-(1-Pyrrolidinyl)ethyl]oxy}phenyl)-1H-benzimidazol-1-yl]-2-thiophenecarboxamide]
8 | < 100 | < 500 | C[C@@H](Oc1cc(-n2cnc3cc(-c4ccc(NC(=O)CN5CCOCC5)cc4)ccc32)sc1C(N)=O)c1ccccc1Cl [Example 24, 3-{[(1R)-1-(2-chlorophenyl)ethyl]oxy}-5-(5-[4-[(4-morpholinylacetyl)amino]phenyl]-1H-benzimidazol-1-yl)-2-thiophenecarboxamide]
9 | < 100 | < 500 | C[C@@H](Oc1cc(-n2cnc3cc(-c4ccc(NCCN(C)C)nc4)ccc32)sc1C(N)=O)c1ccccc1C(F)(F)F [Example 25, 5-[5-(6-{[2-(dimethylamino)ethyl]amino}-3-pyridinyl)-1H-benzimidazol-1-yl]-3-({(1R)-1-[2-(trifluoromethyl)phenyl]ethyl}oxy)-2-thiophenecarboxamide]
10 | < 100 | < 500 | CNCCNc1ccc(-c2ccc3c(c2)ncn3-c2cc(O[C@H](C)c3ccccc3C(F)(F)F)c(C(N)=O)s2)cn1 [Example 26, 5-[5-(6-{[2-(methylamino)ethyl]amino}-3-pyridinyl)-1H-benzimidazol-1-yl]-3-({(1R)-1-[2-(trifluoromethyl)phenyl]ethyl}oxy)-2-thiophenecarboxamide]
11 | < 100 | < 500 | C[C@@H](Oc1cc(-n2cnc3cc(-c4ccc(N(C)CCN(C)C)nc4)ccc32)sc1C(N)=O)c1ccccc1Cl [Example 27, 3-{[(1R)-1-(2-chlorophenyl)ethyl]oxy}-5-(5-[6-[[2-(dimethylamino)ethyl](methyl)amino]-3-pyridinyl]-1H-benzimidazol-1-yl)-2-thiophenecarboxamide]
12 | < 100 | < 500 | C[C@@H](Oc1cc(-n2cnc3cc(-c4ccc(NCCO)nc4)ccc32)sc1C(N)=O)c1ccccc1Cl [Example 28, 3-{[(1R)-1-(2-chlorophenyl)ethyl]oxy}-5-(5-[6-[(2-hydroxyethyl)amino]-3-pyridinyl]-1H-benzimidazol-1-yl)-2-thiophenecarboxamide]
13 | < 100 | < 500 | C[C@@H](Oc1cc(-n2cnc3cc(-c4ccc(NCCCN(C)C)nc4)ccc32)sc1C(N)=O)c1ccccc1Cl [Example 29, 3-{[(1R)-1-(2-chlorophenyl)ethyl]oxy}-5-[5-(6-{[3-(dimethylamino)propyl]amino}-3-pyridinyl)-1H-benzimidazol-1-yl]-2-thiophenecarboxamide]
14 | < 100 | < 500 | C[C@@H](Oc1cc(-n2cnc3cc(-c4ccc(NCCN(C)C)nc4)ccc32)sc1C(N)=O)c1ccccc1Cl [Example 30, 3-{[(1R)-1-(2-chlorophenyl)ethyl]oxy}-5-[5-(6-{[2-(dimethylamino)ethyl]amino}-3-pyridinyl)-1H-benzimidazol-1-yl]-2-thiophenecarboxamide]
15 | < 100 | < 500 | C[C@@H](Oc1cc(-n2cnc3cc(-c4ccc(NCCCN5CCN(C)CC5)nc4)ccc32)sc1C(N)=O)c1ccccc1Cl [Example 31, 3-{[(1R)-1-(2-chlorophenyl)ethyl]oxy}-5-[5-(6-{[3-(4-methyl-1-piperazinyl)propyl]amino}-3-pyridinyl)-1H-benzimidazol-1-yl]-2-thiophenecarboxamide]
16 | < 100 | < 500 | C[C@@H](Oc1cc(-n2cnc3cc(-c4ccc(NCCN5CCOCC5)nc4)ccc32)sc1C(N)=O)c1ccccc1Cl [Example 32, 3-{[(1R)-1-(2-chlorophenyl)ethyl]oxy}-5-[5-(6-{[2-(4-morpholinyl)ethyl]amino}-3-pyridinyl)-1H-benzimidazol-1-yl]-2-thiophenecarboxamide]
17 | < 100 | < 500 | C[C@@H](Oc1cc(-n2cnc3cc(-c4ccc(N(C)CCCN(C)C)nc4)ccc32)sc1C(N)=O)c1ccccc1Cl [Example 33, 3-{[(1R)-1-(2-chlorophenyl)ethyl]oxy}-5-(5-[6-[[3-(dimethylamino)propyl](methyl)amino]-3-pyridinyl]-1H-benzimidazol-1-yl)-2-thiophenecarboxamide]
